# Legend:
# human TrkA protein = human TrkA protein (Homo sapiens (Human), UniProt P04629); assay: Evaluation on binding activity against human TrkA protein (TrkA LanthaScreen Eu Kinase Binding Assay)
# Description: (Pharmacology Experiment 1): Evaluation on Binding Activity Against Human TrkA Protein
# Measurements were made using TrkA LanthaScreen™ Eu Kinase Binding Assay (ThermoFisher SCIENTIFIC). Into 384 well plates (Corning), a 2.5 μL solution having each concentration of the test compound (1) diluted in Kinase buffer (ThermoFisher SCIENTIC) and a 2.5 μL having 15 nM TrkA enzyme (ThermoFisher SCIENTIFIC) were added. In addition, a 5 μL having 3 nM Eu-anti-His Tag […] (ThermoFisher SCIENTIFIC) and 5 μL having 30 nM Kinase™ Tracer 236 (ThermoFisher SCIENTIFIC) were added, and allowed to react at room temperature for 60 minutes. After the reaction, the fluorescence ratio was calculated as the binding amount of the test compound (1) with TrkA enzyme, by measuring the fluorescence intensity (Emission wavelength 615 nm) and TR-FRET (Emission wavelength 665 nm) of Europium by the excitation wavelength of 340 nm using EnVision 2100 (PerkinElmer). […]
# The inhibitory activity of each crystal of the test compound (1), which is 1-((1R,2R)-2-hydroxy-4,4-dimethyl-1,2,3,4-tetrahydronaphthalen-1-yl)-3-(5-methyl-6-(2-methylpyrimidin-5-yl)-2-phenylpyridin-3-yl)urea can be assessed by IC50 value.
# [1] = Safety observation in pharmacology experiments 3 and 4 in rats; assay type: in vivo; settings: oral administration
# Description: (Pharmacology Experiment 3): Inhibitory Effect on NGF-Induced Vascular Permeability Increase in Rats
# The inhibitory activity against TrkA in vivo was evaluated. Clipped back male Sprague-Dawley rats (CD(SD)IGS rats, Charles River, Japan) were orally administered test compound (1) dissolved or suspended in a solvent (dose volume: 5 mL/kg). Vehicle controls were treated orally with vehicle. […] A 200 μL of the formamide extract was transferred to a 96-well plate (Nunc), and the absorbance (wavelength: 620 nm) of Evans blue extracted into formamide was measured using SpectraMax (Molecular Device). […]
# The analgesic effect of the test compound (1) was evaluated in a CFA-induced rat model. […]
# Measurements were made 7 days after CFA administration. After calming the animals to the measurement environment for at least 1 hour, the footpads were stimulated with von Frey filaments according to the Dixon up-down method (Journal of Neuroscience Methods, Vol. 53, pp. 55-63, 1994), and then 50% threshold (g) was calculated by the following equation. […]
# Storage stability test = assay type: physicochemical
# Description: For the stability test, approximately 20 mg of the test sample was stored at 25° C./60% RH or at 40° C./75% RH in open or closed condition for 1 month using a small environmental tester SH-641 (manufactured by Espec), and changes in purity and in crystalline form were observed.
# For purity measurement, equipment of Waters ACQUITY UPLC H-Class (manufactured by Waters) and column of Waters ACQUITY BEH C18 (particle diameter […], size 2.1×50 mm) are used. For the mobile phase, 10 mmol/L ammonium bicarbonate buffer pH 9.0 and acetonitrile were used; and the test sample solution at 100 μg/mL in the mixture solvent of THF (tetrahydrofuran):10 mmol/L ammonium bicarbonate buffer (20:80) was prepared.
# (Test Example 2) Storage Stability Test
# The type I (Example 2), III (Example 3), V (Example 4) and VI (Example 5) crystals (each about 20 mg) of 1-((1R,2R)-2-hydroxy-4,4-dimethyl-1,2,3,4-tetrahydronaphthalen-1-yl)-3-(5-methyl-6-(2-methylpyrimidin-5-yl)-2-phenylpyridin-3-yl)urea obtained in the above Examples 2 to 5 were stored in glass bottles under the respective conditions described in Table 7. After completion of the storage period, the retrieved sample was confirmed on the purity by high performance liquid chromatography and on the crystal form by powder X-ray diffraction analysis as in the Examples.
# [2] = Determination of equilibrium solubility in phosphate buffer solution with pH 6.8; assay type: physicochemical; settings: pH 6.8 phosphate buffer, 37° C., mean value of three measurements
# Text: (Test Example 1) Determination of Equilibrium Solubility (Determination of Solubility in Phosphate Buffer Solution with pH 6.8)
# Each of the equilibrium solubilities (solubility in phosphate buffer solution with pH 6.8) of Type I (Example 2), III (Example 3), V (Example 4) and VI crystals (Example 5) of 1-((1R,2R)-2-hydroxy-4,4-dimethyl-1,2,3,4-tetrahydronaphthalen-1-yl)-3-(5-methyl-6-(2-methylpyrimidin-5-yl)-2-phenylpyridin-3-yl)urea obtained in the above (Example 2) to (Example 5) was determined as follows:
# Water was added a weighed potassium dihydrogen phosphate of 2.7 g to make 100 mL volume to prepare 0.2 mol/L potassium dihydrogen phosphate solution. Water was added a weighed disodium hydrogen phosphate […] of 7.2 g to make 100 mL volume to prepare 0.2 mol/L disodium hydrogen phosphate solution. A pH 6.8 phosphate buffer solution was prepared by diluting a mixture of 0.2 mol/L potassium dihydrogen phosphate solution (14.8 mL) and 0.2 mol/L disodium hydrogen phosphate solution (10.0 mL) with water (173.6 mL).
# Approximately 1 mg of the each crystal from (Example 2) to (Example 5) was weighed into a screw tube, and a pH 6.8 phosphate buffer solution (1 mL) was added. An isothermal shaker (M-BR-022UP) was used to incubate the sample at 37° C. and 1000 rpm for 24 hours. 100 μL solution were sampled at 1, 2, 6, and 24 hours after the start of incubation, and were filtered using a centrifuge (HITACHI, Himac cF 9RX, at 25° C., at 1500 rpm, for 30 seconds) with a filter (Millipore: Multiscreen, MSSLBPC10) so as to remove insoluble materials. A 20 μL of the filtrate was quantified, and diluted with a solution (180 μL, pH 9.0) of 20 vol % tetrahydrofuran and 80 vol % ammonium bicarbonate aqueous solution (10 mM). A 10 μL of the prepared solution was quantified, and diluted with a solution (190 μL, pH 9.0) of 20 vol % tetrahydrofuran and 80 vol % ammonium bicarbonate aqueous solution (10 mM). The prepared solution was analyzed by ultra performance liquid chromatography (UPLC) under the following measurement conditions, and the concentration of the compound in the solution was calculated based on a previously prepared calibration curve. Three times of measurements were made for each example compound, and the mean values and standard deviations of the three measurements are shown as a result in Table 6.
# <UPLC measurement conditions> Equipment: ACQUITY UPLC H-Class (Waters) Detector: PDA (200-500 nm) Column: BEH C18 2.1×50 mm Measurement wavelength: 270 nm Column temperature: 40° C. Injection amount: 10 μL Mobile phase: • Solvent A, acetonitrile; • Solvent B, 10 mM ammonium bicarbonate aqueous solution (pH 9.0) Gradient conditions: […]
# [3] = Photostability test according to ICH Q1B; assay type: physicochemical
# Description: (Test Example 3) Photostability Test
# The type I (Example 2), III (Example 3), V (Example 4), and VI (Example 5) crystals (each about 20 mg) of 1-((1R,2R)-2-hydroxy-4,4-dimethyl-1,2,3,4-tetrahydronaphthalen-1-yl)-3-(5-methyl-6-(2-methylpyrimidin-5-yl)-2-phenylpyridin-3-yl)urea obtained in the above Examples 2 to 5 were placed in a transparent plastic container and covered, and were subjected to photostability test according to the ICH Q1B (Guidelines on Photostability Testing of New Active Substances and Medicinal Products) described in Table 8 (Here, the photostability test samples were stored at about 25° C. under separate lamps which respectively emits visible light and UV-A light so that the total light exposure should be 1.2 million lux hours and 200 W hours/m^2 or more, respectively. A 5-day study should be designated as “0.5 ICH” and a 10-day study as “1 ICH”). […] After completion of the test, the retrieved sample was confirmed on the purity by high performance liquid chromatography and on the crystal form by powder X-ray diffraction analysis as in the Examples.
# [4] = 25° C./60% RH, closed for 1 month
# [5] = 25° C./60% RH, open for 1 month
# [6] = 40° C./75% RH, closed for 1 month
# [7] = 40° C./75% RH, open for 1 month
# [8] = Shielded from light by aluminum foil, 0.5 ICH
# [9] = Shielded from light by aluminum foil, 1 ICH
# [10] = Shielded from light by aluminum foil, Before the test
# human TrkA protein, sequence (P04629 33-796): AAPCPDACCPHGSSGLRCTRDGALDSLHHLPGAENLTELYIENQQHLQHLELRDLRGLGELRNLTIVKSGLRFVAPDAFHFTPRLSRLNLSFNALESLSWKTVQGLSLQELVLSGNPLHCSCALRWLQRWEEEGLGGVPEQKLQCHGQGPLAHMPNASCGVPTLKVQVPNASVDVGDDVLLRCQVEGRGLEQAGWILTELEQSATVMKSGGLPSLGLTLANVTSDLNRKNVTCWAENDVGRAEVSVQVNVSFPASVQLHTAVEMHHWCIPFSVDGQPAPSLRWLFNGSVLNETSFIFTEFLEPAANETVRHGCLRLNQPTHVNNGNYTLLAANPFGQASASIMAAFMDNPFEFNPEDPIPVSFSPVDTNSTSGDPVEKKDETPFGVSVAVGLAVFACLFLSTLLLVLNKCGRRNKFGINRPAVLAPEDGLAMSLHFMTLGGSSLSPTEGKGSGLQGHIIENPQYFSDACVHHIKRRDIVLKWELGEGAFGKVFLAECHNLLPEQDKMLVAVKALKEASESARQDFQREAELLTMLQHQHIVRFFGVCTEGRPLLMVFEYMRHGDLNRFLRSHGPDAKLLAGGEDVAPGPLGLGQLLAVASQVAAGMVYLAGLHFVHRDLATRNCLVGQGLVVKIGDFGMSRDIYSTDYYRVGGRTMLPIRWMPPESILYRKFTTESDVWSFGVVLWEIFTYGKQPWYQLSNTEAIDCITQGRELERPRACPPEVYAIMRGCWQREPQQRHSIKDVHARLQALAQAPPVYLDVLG
smiles,measurement,setting,value
"Cc1ncc(-c2nc(-c3ccccc3)c(NC(=O)N[C@@H]3c4ccccc4C(C)(C)C[C@H]3O)cc2C)cn1 [Example 1, 1-((1R,2R)-2-hydroxy-4,4-dimethyl-1,2,3,4-tetrahydronaphthalen-1-yl)-3-(5-methyl-6-(2-methylpyrimidin-5-yl)-2-phenylpyridin-3-yl)urea]",TrkA inhibitory effect,human TrkA protein; result in words,excellent
same,Abnormalities in the safety test,[1],no abnormalities
"Cc1ncc(-c2nc(-c3ccccc3)c(NC(=O)N[C@@H]3c4ccccc4C(C)(C)C[C@H]3O)cc2C)cn1 [Example 3, 1-((1R,2R)-2-hydroxy-4,4-dimethyl-1,2,3,4-tetrahydronaphthalen-1-yl)-3-(5-methyl-6-(2-methylpyrimidin-5-yl)-2-phenylpyridin-3-yl)urea]",Chemical purity (%),Storage stability test; [4],100.00%
same,Crystalline form after completion of storage period,Storage stability test; [4],Type III crystal
same,Chemical purity (%),Storage stability test; [5],100.00%
same,Crystalline form after completion of storage period,Storage stability test; [5],Type III crystal
same,Chemical purity (%),Storage stability test; [6],100.00%
same,Crystalline form after completion of storage period,Storage stability test; [6],Type III crystal
same,Chemical purity (%),Storage stability test; [7],100.00%
same,Crystalline form after completion of storage period,Storage stability test; [7],Type III crystal
same,Chemical purity (%),Storage stability test; Before the test,100.00%
same,Crystalline form after completion of storage period,Storage stability test; Before the test,Type III crystal
same,Solubility,[2],66.0 µg/mL
same,Chemical purity (%),"[3]; Exposure, 0.5 ICH (5-day)",100.0%
same,Crystalline form after completion of storage period,"[3]; Exposure, 0.5 ICH (5-day)",Type III crystal
same,Chemical purity (%),"[3]; Exposure, 1 ICH (10-day)",100.0%
same,Crystalline form after completion of storage period,"[3]; Exposure, 1 ICH (10-day)",Type III crystal
same,Chemical purity (%),"[3]; Exposure, Before the test",100.0%
same,Crystalline form after completion of storage period,"[3]; Exposure, Before the test",Type III crystal
same,Chemical purity (%),[3]; [8],100.0%
same,Crystalline form after completion of storage period,[3]; [8],Type III crystal
same,Chemical purity (%),[3]; [9],100.0%
same,Crystalline form after completion of storage period,[3]; [9],Type III crystal
same,Chemical purity (%),[3]; [10],100.0%
same,Crystalline form after completion of storage period,[3]; [10],Type III crystal
same,Stability against light,"[3]; result in words, listed as type III crystal",stable against light
same,IC50,"human TrkA protein; TrkA enzyme, Kinase Tracer 236, TR-FRET",≤ 50 nM
